The values below come from ChEMBL document CHEMBL1148897, “New natural products from the sponge-derived fungus Aspergillus niger” (J Nat Prod, 2004).

Calls of active or inactive are those of the source. The rule behind the calls is not given here.

Data set [1] concerns Artemia salina. Briefly: Toxicity in Artemia salina at 10 ppm. It counts as organism-based. The note with it: in vivo.
For data set [2], the system named is Artemia salina. Nature of the data set: Toxicity in Artemia salina at 100 ppm. Format: organism-based. The note with it: in vivo.
The test system of data set [3] is Bacillus subtilis. Briefly: Antimicrobial activity against Bacillus subtilis at 50 ug/disk after 24 hrs by agar plate diffusion assay. Format: functional, organism-based.
Data set [4] relates to Bacillus subtilis. Briefly: Antimicrobial activity against Bacillus subtilis at 1000 ug/disk after 24 hrs by agar plate diffusion assay. It counts as functional, organism-based.
Data set [5] concerns Staphylococcus aureus. Nature of the data set: Antimicrobial activity against Staphylococcus aureus at 50 ug/disk after 24 hrs by agar plate diffusion assay. It counts as functional, organism-based.
The subject of data set [6] is Escherichia coli. Nature of the data set: Antimicrobial activity against Escherichia coli at 50 ug/disk after 24 hrs by agar plate diffusion assay. Format: functional, organism-based.
For data set [7], the system named is Escherichia coli. Nature of the data set: Antimicrobial activity against Escherichia coli at 100 ug/disk after 24 hrs by agar plate diffusion assay. It counts as functional, organism-based.
Data set [8] has as its system Candida albicans. Nature of the data set: Antimicrobial activity against Candida albicans at 50 ug/disk after 24 hrs by agar plate diffusion assay. Format: functional, organism-based.
The subject of data set [9] is Candida albicans. Briefly: Antimicrobial activity against Candida albicans at 100 ug/disk after 24 hrs by agar plate diffusion assay. It counts as functional, organism-based.
For data set [10], the system named is Cortical neurone. Nature of the data set: Neuroprotective activity in Wistar rat cortical neuron assessed as reduction of L-glutamic acid-induced intracellular calcium level at 1 ug/mL relative to control. Also on record: scale not given: the % may be the effect or the level left. It counts as functional.
Data set [11] has as its system Cortical neurone. Nature of the data set: Neuroprotective activity in Wistar rat cortical neuron assessed as reduction of L-glutamic acid-induced intracellular calcium level at 5 ug/mL relative to control. Format: functional. Further details: scale not given: the % may be the effect or the level left. For orientation: Calcium flux is commonly read through the fluorescence of an indicator in the cells.

Data set [12] deals with Cortical neurone. Nature of the data set: Neuroprotective activity in Wistar rat cortical neuron assessed as reduction of quisqualic acid-induced intracellular calcium level at 1 ug/mL relative to control. Format: functional. Also on record: scale not given: the % may be the effect or the level left.
For data set [13], the system named is Cortical neurone. Nature of the data set: Neuroprotective activity in Wistar rat cortical neuron assessed as reduction of quisqualic acid-induced intracellular calcium level at 5 ug/mL relative to control. It counts as functional. Also on record: scale not given: the % may be the effect or the level left.
The subject of data set [14] is Staphylococcus aureus. Nature of the data set: Antimicrobial activity against Staphylococcus aureus at 100 ug/disk after 24 hrs by agar plate diffusion assay. It counts as functional, organism-based.
For data set [15], the system named is Spodoptera littoralis. Nature of the data set: Insecticidal activity against Spodoptera littoralis larvae assessed as reduction of weight at 100 ppm in artificial diet after 7 days relative to control. Format: functional. Also on record: scale not given: the % may be the effect or the level left.
In data set [16] the test system is Spodoptera littoralis. Nature of the data set: Insecticidal activity against Spodoptera littoralis larvae assessed as survival rate at 100 ppm in artificial diet after 7 days relative to control. It counts as functional.

For `COc1cc([C@H](Cc2ccccc2)n2cc(C(N)=O)c(Cc3ccccc3)cc2=O)oc(=O)c1` [ASPERNIGRIN B], the Activity result in the data set on Artemia salina [1] is “Non-toxic”; with Artemia salina [2], “Non-toxic”; in the data set on Cortical neurone [10], 25.5%; with Cortical neurone [11], 55%; with Cortical neurone [12], 33.6%; with Cortical neurone [13], 23.5%. The outcome in the data set on Bacillus subtilis [3], in the data set with Bacillus subtilis [4], in the data set with Staphylococcus aureus [5], in the data set on Escherichia coli [6], in the data set on Escherichia coli [7] and with Candida albicans [8] was inactive. Further, the result in the data set on Candida albicans [9] and in the data set on Staphylococcus aureus [14] was inactive.

Regarding `COc1cc(C)c2c(OC)c(-c3c(O)c4c(C)cc(O)cc4oc3=O)c(=O)oc2c1`, the Activity result in the data set on Artemia salina [1] and in the data set with Artemia salina [2] was “Non-toxic” in each case. Moreover, the outcome with Bacillus subtilis [3], in the data set on Bacillus subtilis [4], with Staphylococcus aureus [5], in the data set on Escherichia coli [6], in the data set on Escherichia coli [7] and in the data set with Candida albicans [8] was inactive. Further, the result with Candida albicans [9] and in the data set with Staphylococcus aureus [14] was inactive.

Turning to `C/C=C/c1oc2c(O)c(OC)n(O)c2c(=O)c1O` [PYRANONIGRIN C], the Activity entry in the data set with Artemia salina [1] and in the data set with Artemia salina [2] was “Non-toxic” throughout. Moreover, the outcome in the data set with Bacillus subtilis [3], with Bacillus subtilis [4], in the data set with Staphylococcus aureus [5], in the data set with Escherichia coli [6], in the data set on Escherichia coli [7] and in the data set with Candida albicans [8] was inactive. For the same compound, the result in the data set on Candida albicans [9] and in the data set on Staphylococcus aureus [14] was inactive.

Regarding `C/C=C/c1oc2c(OC)c(O)n(O)c2c(=O)c1O` [PYRANONIGRIN B], the Activity result in the data set with Artemia salina [1] and in the data set on Artemia salina [2] was “Non-toxic” each time. In addition, the outcome in the data set with Bacillus subtilis [3], in the data set with Bacillus subtilis [4], with Staphylococcus aureus [5], in the data set on Escherichia coli [6], with Escherichia coli [7] and with Candida albicans [8] was inactive. Also, the outcome in the data set with Candida albicans [9] and in the data set with Staphylococcus aureus [14] was inactive.

`NC(=O)c1c[nH]c(=O)cc1Cc1ccccc1` [ASPERNIGRIN A]: the Activity entry in the data set with Artemia salina [1] and in the data set on Artemia salina [2] was “Non-toxic” each time. For the same compound, the result in the data set on Bacillus subtilis [3], in the data set with Bacillus subtilis [4], in the data set on Staphylococcus aureus [5], in the data set on Escherichia coli [6], with Escherichia coli [7] and in the data set with Candida albicans [8] was inactive. The outcome with Candida albicans [9] and with Staphylococcus aureus [14] was inactive.

Regarding `C/C=C/c1oc2c(c(=O)c1O)N[C@H](O)C2=O` [PYRANONIGRIN A], the Activity entry is “Non-toxic” with Artemia salina [1], “Non-toxic” in the data set on Artemia salina [2], 29% in the data set with Spodoptera littoralis [15] and 85% in the data set on Spodoptera littoralis [16]. Moreover, the outcome in the data set with Bacillus subtilis [3], with Bacillus subtilis [4], in the data set with Staphylococcus aureus [5], in the data set with Escherichia coli [6], with Escherichia coli [7] and in the data set with Candida albicans [8] was inactive. For the same compound, the outcome with Candida albicans [9] and in the data set with Staphylococcus aureus [14] was inactive.
